In paper PMC11013284, “Chemoselective Synthesis and Anti-Kinetoplastidal Properties of 2,6-Diaryl-4H-tetrahydro-thiopyran-4-one S-Oxides: Their Interplay in a Cascade of Redox Reactions from Diarylideneacetones” (Molecules, 2024):
Where two headings read alike, the source gives them in different places.

What was measured:
[1] = system: WT LV9 L. donovani intramacrophage amastigotes; experiment: L. donovani intramacrophage amastigote assay; format: cell-based, Leishmania donovani; settings: WT LV9, ± SD in Tables S5/S6, read-out: IC50 L. donovani intramacrophage amastigotes
[2] = system: Trypanosoma cruzi (Tulahuen CL2 β-galactosidase) amastigotes in hMRC-5SV2 cells; experiment: T. cruzi intracellular amastigote assay (β-galactosidase/CPRG); format: cell-based; settings: intracellular amastigotes, 7 days; for IC50: read-out: IC50 T. cruzi intramacrophage amastigotes (converted)
Experimental: A nifurtimox-sensitive strain (Tulahuen CL2 β-galactosidase) in human lung fibroblast hMRC-5SV2 cells was incubated for 7 days in 96-well plates with five concentrations of compound (64, 16, 4, 1, and 0.25 μM). The parasitic burden was evaluated through the activity of the enzyme β-galactosidase on a specific chlorophenol red ß-D-galactopyranoside (CPRG) substrate. Live parasites converted the yellow-orange CPRG substrate into the red chromophore chlorophenol red, yielding a dark-red solution, which could be quantitatively measured at 540 nm after 4 h of incubation at 37 °C. The results were expressed as a percentage reduction in parasite growth/viability compared to control wells, and an IC50 was calculated.

[3] = system: Trypanosoma brucei brucei trypomastigotes, suramin-sensitive strain (Squib 427); experiment: T. b. brucei growth/viability assay (resazurin); format: cell-based; settings: 3 days
Experimental: After 3 days, parasite growth was assessed fluorimetrically following the addition of resazurin. After 24 h at 37 °C, fluorescence was measured (λex = 550 nm, λem = 590 nm). The results were expressed as a percentage reduction in parasite growth/viability compared to control wells, and a 50% inhibitory concentration (IC50) was calculated.

in vitro = settings: human, CC50 hMRC-5 (cytotoxicity)
Experimental: (§1) The cytotoxicity of compounds was evaluated toward human diploid embryonic lung fibroblast hMRC-5SV2 cells, derived from fetal lung tissue and first described in 1970. hMRC-5SV2 cells were cultured in 96-well plates with five concentrations of the compound (64, 16, 4, 1, and 0.25 μM). After 3 days of incubation, the cell viability was assessed fluorimetrically after the addition of resazurin, and fluorescence was measured (λex = 550 nm, λem = 590 nm). The results were expressed as a percentage reduction in cell growth/viability compared to control wells, and a 50% cytotoxic concentration (CC50) was calculated. The reference cytotoxic drugs were tamoxifen or ivermectin. Additionally, toxicity toward mouse macrophages was qualitatively observed. Three concentrations were included (64, 16, and 4 µM), and the range of toxicity was ranked from the least toxic to the most toxic compound.

[4] = system: L. infantum (MHOM/MA(BE)/67) amastigotes in primary peritoneal mouse macrophages; experiment: L. infantum intramacrophage amastigote assay (microscopic burden); format: cell-based, Leishmania infantum; settings: 5 days, mouse macrophages as host
Experimental: L. infantum (MHOM/MA(BE)/67 strain) amastigote were incubated for 5 days in 96-well plates with five concentrations of compound (64, 16, 4, 1, and 0.25 μM). Primary peritoneal mouse macrophages were used as host cells. Parasite burdens (i.e., the number of amastigotes per macrophage) were microscopically assessed. The results were expressed as a percentage reduction in parasite burden compared to untreated control wells, and an IC50 was calculated.

macrophages = settings: bracketed value after the intramacrophage IC50 (Table S5); Table S6
[5] = system: human diploid embryonic lung fibroblast hMRC-5SV2 cells; experiment: in vitro
Experimental: as §1

[6] = Trypanosoma cruzi, TULAHUEN, 168 h
[7] = Leishmania infantum, Macrophage, 120 h

Row | Compound | IC50 [2] [µM] | IC50 [4] [µM] | IC50 [3] [µM] | CC50 [5] [µM] | other results
1 | COc1ccc(C2CC(=O)CC(c3ccc(OC)cc3)[S+]2[O-])cc1 (mixture of isomers) [3d, (±)-trans-2,6-Di-(p-anisyl)-4H-tetrahydrothiopyran-4-one 1-oxide] | 8.9 | ≥ 64 | – | – | IC50 [1]: 50.2 µM; IC50 ([3]; Trypanosoma brucei, 72 h): 3.1 µM; CC50 at 3 days (in vitro): 32.2 µM
2 | O=C1CC(c2ccccc2Cl)SC(c2ccccc2Cl)C1 (racemic) [2e] | > 64 | 32 | > 64 | > 64 | observed macrophage death / lysis observed at (macrophages): > 150 µM; IC50 [1]: 14.2 ± 1.3 µM
3 | O=C1C[C@H](c2ccccn2)S[C@@H](c2ccccn2)C1 (racemic) [2w] | ≥ 64 | ≥ 64 | – | – | IC50 ([1]; Leishmania donovani): > 100 µM; IC50 [2, 6]: > 64 µM; IC50 ([3]; Trypanosoma brucei, 72 h): 26.1 µM; CC50 ([5]; human, 3 days): ≥ 64 µM; CC50 at 3 days (in vitro): > 64 µM; IC50 [4, 7]: > 64 µM
4 | COc1ccc([C@H]2CC(=O)C[C@H](c3ccc(OC)cc3)S2)cc1 (relative stereo) [2d] | ≥ 64 | ≥ 64 | ≥ 64 | – | IC50 [2, 6]: > 64 µM; IC50 ([3]; Trypanosoma brucei, 72 h): > 64 µM; CC50 ([5]; human, 3 days): ≥ 64 µM; CC50 at 3 days (in vitro): > 64 µM; IC50 [4, 7]: > 64 µM
5 | COc1ccc(/C=C/C(=O)/C=C/c2ccc(OC)cc2)cc1 [1d] | – | ≥ 64 | 1.24 | – | IC50 [2, 6]: 10.7 µM; IC50 ([3]; Trypanosoma brucei, 72 h): 1.2 µM; CC50 ([5]; human, 3 days): ≥ 64 µM; CC50 at 3 days (in vitro): > 64 µM; IC50 [4, 7]: > 64 µM
6 | COc1cc(/C=C/C(=O)/C=C/c2ccc(O)c(OC)c2)ccc1O [1i] | 1 | ≥ 32 | ≤ 0.3 | 1.1 | –
7 | C=CCOc1ccc(/C=C/C(=O)/C=C/c2ccc(OCC=C)c(OC)c2)cc1OC [1k] | 36.9 | > 64 | 6.8 | > 64 | –
8 | COc1ccc(O)c(/C=C/C(=O)/C=C/c2cc(OC)ccc2O)c1 [1l] | – | – | – | – | IC50 [2, 6]: 1 µM; IC50 ([3]; Trypanosoma brucei, 72 h): ≤ 0.3 µM; CC50 at 3 days (in vitro): 1.9 µM; IC50 [4, 7]: ≥ 32 µM
9 | O=C(/C=C/c1ccccc1)/C=C/c1ccc(C(F)(F)F)cc1 [1’b] | 33.8 | > 64 | 2.2 | > 64 | –
10 | CN(C)c1ccc(/C=C/C(=O)/C=C/c2ccc(C(F)(F)F)cc2)cc1 [1’c] | 31.7 | 8 | 9.2 | > 64 | –
11 | N#Cc1ccc(/C=C/C(=O)/C=C/c2ccccc2)cc1 [1’l] | 3.3 | 7 | ≤ 0.2 | 38.7 | –
12 | O=C(/C=C/c1ccccc1)/C=C/c1ccccn1 [1’n] | 0.5 | 1.3 | ≤ 0.2 | 1.5 | –
13 | O=C(/C=C/c1ccccc1)/C=C/c1ccncc1 [1’o] | ≤ 0.2 | 0.5 | ≤ 0.2 | 2 | –
14 | CN(C)c1ccc(/C=C/C(=O)/C=C/c2ccc(F)cn2)cc1 [1’q] | > 64 | 32.5 | 13.3 | 32.2 | –
15 | O=C(/C=C/c1ccccc1)/C=C/c1ncccn1 [1’r] | ≤ 0.2 | 0.4 | ≤ 0.2 | 1.6 | –
16 | O=C1C[C@@H](c2ccccc2Cl)S[C@@H](c2ccccc2Cl)C1 [2’e] | 35 | > 64 | 37.6 | > 64 | –
17 | O=C1C[C@@H](c2ccc(F)cc2)S[C@@H](c2ccc(F)cc2)C1 [2’g] | 1.4 | 2.1 | 2.1 | 6.4 | –
18 | COc1cc([C@@H]2CC(=O)C[C@H](c3cc(OC)c(C)cc3OC)S2)c(OC)cc1C [2’o] | 37.2 | 5.1 | 32.5 | > 64 | –
19 | COc1cc(Br)c(OC)c([C@@H]2CC(=O)C[C@H](c3cc(OC)cc(Br)c3OC)S2)c1 [2’q] | 17.1 | 8.6 | 32.2 | > 64 | –
20 | COc1ccc(C2CC(=O)CC(c3ccc(OC)cc3)S2)cc1 (stereo not shown) [2′d] | ≥ 64 | ≥ 64 | ≥ 64 | – | IC50 ([1]; Leishmania donovani): > 100 µM; IC50 [2, 6]: > 64 µM; IC50 ([3]; Trypanosoma brucei, 72 h): > 64 µM; CC50 ([5]; human, 3 days): ≥ 64 µM; CC50 at 3 days (in vitro): > 64 µM; IC50 [4, 7]: > 64 µM
21 | O=C1CC(c2ccccn2)SC(c2ccccn2)C1 (stereo not shown) [2′w] | ≥ 64 | ≥ 64 | 29.1 | – | IC50 ([1]; Leishmania donovani): > 100 µM; IC50 [2, 6]: > 64 µM; IC50 ([3]; Trypanosoma brucei, 72 h): 29.6 µM; CC50 ([5]; human, 3 days): ≥ 64 µM; CC50 at 3 days (in vitro): > 64 µM; IC50 [4, 7]: > 64 µM
22 | COc1ccc(C2CC(=O)CC(c3ccc(OC)cc3)[S+]2[O-])cc1 (stereo not drawn) [3′d, (anti)- and (syn)-cis-2,6-Di-(p-anisyl)-4H-tetrahydro-thiopyran-4-one 1-oxides] | ≥ 64 | ≥ 64 | 2.3 | – | IC50 [1]: > 100 µM; IC50 T. cruzi intramacrophage amastigotes [2]: inactive; CC50 ([5]; human, 3 days): ≥ 64 µM; IC50 L. infantum intramacrophage amastigotes [4]: inactive
23 | CC1CS(=O)(=O)CCN1/N=C/c1ccc([N+](=O)[O-])o1 (stereo not shown) [Nifurtimox, nifurtimox, reference compound] | – | – | – | – | IC50 [2, 6]: 0.845 ± 0.2 µM
24 | Cc1ccc(C(=O)Nc2ccc(S(=O)(=O)O)c3cc(S(=O)(=O)O)cc(S(=O)(=O)O)c23)cc1NC(=O)c1cccc(NC(=O)Nc2cccc(C(=O)Nc3cc(C(=O)Nc4ccc(S(=O)(=O)O)c5cc(S(=O)(=O)O)cc(S(=O)(=O)O)c45)ccc3C)c2)c1 [Suramin, suramin, reference compound] | – | – | 0.03 | – | –
25 | CC/C(=C(\c1ccccc1)c1ccc(OCCN(C)C)cc1)c1ccccc1 [Tamoxifen, tamoxifen, reference compound] | – | – | – | – | CC50 at 3 days (in vitro): 9.12 µM
26 | O=C(Cn1ccnc1[N+](=O)[O-])NCc1ccccc1 [benznidazole, reference compound] | – | – | – | – | IC50 [2, 6]: 1.93 µM
27 | CC[C@H](C)[C@H]1O[C@]2(CC[C@@H]1C)C[C@@H]1C[C@@H](C/C=C(\C)[C@@H](O[C@H]3C[C@H](OC)[C@@H](O[C@H]4C[C@H](OC)[C@@H](O)[C@H](C)O4)[C@H](C)O3)[C@@H](C)/C=C/C=C3\CO[C@@H]4[C@H](O)C(C)=C[C@@H](C(=O)O1)[C@]34O)O2 [ivermectine, ivermectin, reference compound] | – | – | – | – | CC50 ([5]; read-out: CC50 hMRC-5 (cytotoxicity), human hMRC-5SV2 fibroblasts, 3 days): 3.5 µM
28 | CCCCCCCCCCCCCCCCOP(=O)([O-])OCC[N+](C)(C)C [miltefosine, Hexadecyl-Phosphoryl-Choline, reference compound] | – | – | – | – | IC50 ([1]; Leishmania donovani): 19.1 ± 0.1 µM
